This note sets out measurements from patent publication US5223178A (priority 1990, dated 1993).

One experiment relates to Poria placenta. The experiment in a line: Wood decay fungi radial growth inhibition on PDA, Table 7. In kind it is cell-based. The conditions noted are these: room temperature, read-out: EC50 (concentration giving 50% control of hyphal growth). The protocol: (§1) The test was run as follows. Potato dextrose agar (PDA) was dissolved in water (39 g/l) and autoclaved at 15 psi for 15 min. PDA was purchased from Difco. The triazole was dissolved in a small quantity of dimethylsulfoxide (DMSO) and diluted to appropriate concentrations with the same solvent. Ten microliters of the appropriate solution was added to each of five wells of a Falcon 6 well tissue culture dish. To the sixth well was added ten microliters of DMSO as a control. Five ml of molten PDA was then added to each of the wells to give […] μg ml-1 of triazole. The plate was gently agitated to afford a uniform mixture. Upon cooling, the dishes were inoculated with a six mm agar plug from a freshly grown culture of the test organism. The assay plates were then incubated at room temperature and evaluated when the radial growth in the control well had reached approximately 30 mm. The radial growth for the treated wells was measured and the growth inhibition and EC50 values were calculated using non-linear regression analysis. Data are shown in Table 7 for triazoles VIII and IX (Table). EC50 values (concentration giving 50% control of hyphal growth) are reported.

The test system of a further experiment is Gloeophyllum tradeum. Described as above. Type of experiment: cell-based. The conditions noted are these: read-out: EC50 (concentration giving 50% control of hyphal growth). As to the method:
as §1

The subject of the next experiment is Phialophora mutabilis. The experiment is described as above. In kind it is cell-based. The conditions noted are these: Coniochaeta mutabilis, room temperature, read-out: EC50 (concentration giving 50% control of hyphal growth). The protocol: as §1
A further experiment relates to Trametes Versicolor. Described as above. Type of experiment: cell-based. The conditions noted are these: room temperature, read-out: EC50 (concentration giving 50% control of hyphal growth). The protocol:
as §1

The next experiment concerns Cladisporium resinae. Briefly: PDA plate mycelial radial growth inhibition (paint film mildew fungi), Table 2. The conditions noted are these: read-out: EC50 (concentration giving 50% control of hyphal growth). In kind it is cell-based. The protocol:
(§2) The test was run as follows. Potato dextrose agar (PDA) was dissolved in water (30 g PDA/1) and autoclaved at 15 psi for 15 minutes. PDA was purchased from Difco. Triazoles were dissolved in a small quantity of methanol and added to autoclaved, molten potato dextrose agar in a dilution series to give 0.01, 0.1, 1, 10 and 100 ug ml^-1. Final methanol content of the highest dose was included. The molten agar was pipetted into Petri plates (15 ml per plate) and allowed to set. Two 5 mm mycelial plugs were removed from mother cultures of each of the fungal species tested, and were placed near the edge of the test plates. When colonies were 10-40 mm in diameter, the radial mycelial growth was measured and EC75 values were determined on log-probit paper.
(§3) EC50 values (concentration giving 50% control of hyphal growth) are reported.

A further experiment has as its system Aspergillus flavus. Described as above. In kind it is cell-based. The conditions noted are these: read-out: EC50 (concentration giving 50% control of hyphal growth). The protocol: as §2, §3
For a further experiment, the system named is Aspergillus niger. Briefly: Paint film mildewcide popsickle stick test, Table 6. The conditions noted are these: A. niger, 10 days, 30° C., 95% RH. The protocol:
(§4) Testing is described below.
(§5) Testing was done in a commercial acrylic-based latex paint with conventional pigments, dispersants, and the like. Texanol (R) is trimethyl-1,3-pentanediol monisobutyrate supplied by Eastman Chemical. "Latex" is a latex of a copolymer of butyl acrylate and methyl methacrylate.
(§6) To a sealable container was charged 100 parts of the paint formulation and the desired triazole concentration. The sample was homogenized for 15 minutes each, then blended and remixed.
(§7) Three triazoles were evaluated for their effectiveness as paint film mildewcides at […] and 10 lbs/100 gallons in a laboratory popsickle stick test. Untreated controls were included in the test.
(§8) Duplicate popsickle sticks painted with the treated and untreated paint sample were inoculated with Aureobasidium pullulans and Aspergillus niger. The sticks were inoculated for 10 days at 30° C. and 95% RH and samples were rated for fungal growth.

The subject of a further experiment is Aureobasidium pullulans. The experiment is described as above. The conditions noted are these: A. pullulans, 10 days, 30° C., 95% RH. The protocol:
as §4, §5, §6, §7, §8

The next experiment concerns Piricularia oryzae. Briefly: microbe, parasite or virus in culture. Type of experiment: cell-based. The conditions noted are these: 72 h.
In another experiment the test system is Alternaria solani. Briefly: PDA plate mycelial radial growth inhibition (paint film mildew fungi), Table 1. The conditions noted are these: PDA plates, read-out: EC75 (concentration giving 75% control of hyphal growth). In kind it is cell-based. As to the method:
as §2
EC75 values (concentration giving 75% control of hyphal growth) are reported.

Another experiment relates to Aureobasidum pullulans. Briefly: PDA plate mycelial radial growth inhibition (paint film mildew fungi), Table 2. Type of experiment: cell-based. The conditions noted are these: read-out: EC50 (concentration giving 50% control of hyphal growth). The protocol:
as §2, §3

The mark [1] stands for this setting: pH 3.5, read-out: EC90 for mycelial growth.
Setting [2] is: pH 4.8, read-out: EC90 for mycelial growth.
The mark [3] stands for this setting: pH 5.4, read-out: EC90 for mycelial growth.
Where [4] appears, read: pH 6.3, read-out: EC90 for mycelial growth.
Setting [5] is: pH 7.2, read-out: EC90 for mycelial growth.
Setting [6] is: pH 7.7, read-out: EC90 for mycelial growth.
[7] abbreviates: pH 8.7, read-out: EC90 for mycelial growth.
Where [8] appears, read: pH 9.8, read-out: EC90 for mycelial growth.
The mark [9] stands for this setting: pH 11.2, read-out: EC90 for mycelial growth.

Converted amounts (≈) assume the structure as drawn. Like-named read-outs stand apart in the source and are kept apart here.

`N#CC(CCc1ccc(Cl)cc1)(Cn1cncn1)c1ccccc1` (stereo not drawn) [Structure VIII, α-[2-(4-chlorophenyl)ethyl]-α-phenyl-1H-1,2,4-triazole-1-propanenitrile]: the EC50 in the experiment on Poria placenta came out at 0.175 µg/mL (≈ 0.52 µM); in the experiment with Gloeophyllum tradeum it was 0.158 µg/mL (≈ 0.469 µM); in the experiment on Phialophora mutabilis, 0.612 µg/mL (≈ 1.82 µM); with Trametes Versicolor, 0.061 µg/mL (≈ 0.181 µM); with Cladisporium resinae, 0.025 µg/mL (≈ 0.0742 µM); in the experiment with Aspergillus flavus it was 3.5 µg/mL (≈ 10.4 µM).
By EC90 is commonly meant the concentration at which the effect reaches the 90% level. In the case of `CCCCC(C#N)(Cn1cncn1)c1ccc(Cl)cc1` (stereo not drawn) [II, α-n-butyl-α-4-chlorophenyl-1H-1,2,4-triazole-1-propanenitrile], the Fungal growth rating in the experiment on Aspergillus niger (replicate 1, 1 lbs/100 gal) is 3+; in the experiment on Aspergillus niger (replicate 1, 5 lbs/100 gal) it was 2+; with Aspergillus niger (replicate 1, 10 lbs/100 gal), 1+; in the experiment with Aspergillus niger (replicate 2, 1 lbs/100 gal), 2+; in the experiment on Aureobasidium pullulans (replicate 1, 1 lbs/100 gal), 3+; in the experiment with Aureobasidium pullulans (replicate 1, 5 lbs/100 gal), 2+. Also, the Fungal growth rating with Aureobasidium pullulans (replicate 1, 10 lbs/100 gal) was 2+; in the experiment with Aureobasidium pullulans (replicate 2, 1 lbs/100 gal), 4+; in the experiment with Aureobasidium pullulans (replicate 2, 5 lbs/100 gal), 2+; in the experiment with Aureobasidium pullulans (replicate 2, 10 lbs/100 gal), 1+. Further, the EC90 with Piricularia oryzae (setting [1]) was 5 µg/mL (≈ 17.3 µM); in the experiment on Piricularia oryzae (setting [2]), 4.5 µg/mL (≈ 15.6 µM); in the experiment with Piricularia oryzae (setting [3]), 4.5 µg/mL (≈ 15.6 µM); in the experiment with Piricularia oryzae (setting [4]), 4.5 µg/mL (≈ 15.6 µM); in the experiment with Piricularia oryzae (setting [5]), 4.5 µg/mL (≈ 15.6 µM); with Piricularia oryzae (setting [6]), 4.5 µg/mL (≈ 15.6 µM). The concentration for an effect of 90% (EC90) in the experiment with Piricularia oryzae (setting [7]) came to 5 µg/mL (≈ 17.3 µM); with Piricularia oryzae (setting [8]), 4.5 µg/mL (≈ 15.6 µM); with Piricularia oryzae (setting [9]), 4.5 µg/mL (≈ 15.6 µM).
Turning to `N#CC(CCc1ccc(Cl)cc1)(Cn1cncn1)c1ccccc1` (stereo not drawn) [I, α-[2-(4-chlorophenyl)ethyl]-α-phenyl-1H-1,2,4-triazole-1-propanenitrile], the Fungal growth rating is 4+ in the experiment on Aspergillus niger (replicate 1, 1 lbs/100 gal); 4+ in the experiment on Aspergillus niger (replicate 1, 5 lbs/100 gal); 3+ in the experiment on Aspergillus niger (replicate 1, 10 lbs/100 gal); 4+ in the experiment on Aspergillus niger (replicate 2, 1 lbs/100 gal); 3+ in the experiment on Aspergillus niger (replicate 2, 5 lbs/100 gal); 3+ with Aspergillus niger (replicate 2, 10 lbs/100 gal). Further, the Fungal growth rating in the experiment on Aureobasidium pullulans (replicate 1, 1 lbs/100 gal) is on record as 2+; in the experiment with Aureobasidium pullulans (replicate 2, 1 lbs/100 gal), 2+. For the same compound, the 90% effect concentration (EC90) with Piricularia oryzae (setting [1]) amounted to 0.5 µg/mL (≈ 1.48 µM); with Piricularia oryzae (setting [2]) it was 0.1 µg/mL (≈ 0.297 µM); in the experiment on Piricularia oryzae (setting [3]), 0.1 µg/mL (≈ 0.297 µM); in the experiment on Piricularia oryzae (setting [4]), 0.1 µg/mL (≈ 0.297 µM); in the experiment on Piricularia oryzae (setting [5]), 0.1 µg/mL (≈ 0.297 µM); in the experiment on Piricularia oryzae (setting [6]), 0.1 µg/mL (≈ 0.297 µM). The 90% effect concentration (EC90) in the experiment on Piricularia oryzae (setting [7]), with Piricularia oryzae (setting [8]) and with Piricularia oryzae (setting [9]) was 0.1 µg/mL (≈ 0.297 µM) throughout. For the same compound, in the experiment with Alternaria solani, the EC75 amounted to 5 µg/mL (≈ 14.8 µM).
Turning to `CCCCC(C#N)(Cn1cncn1)c1ccc(Cl)cc1` (stereo not drawn) [Structure IX, α-n-butyl-α-4-chlorophenyl-1H-1,2,4-triazole-1-propanenitrile], the EC50 with Poria placenta worked out at 0.228 µg/mL (≈ 0.79 µM); in the experiment with Gloeophyllum tradeum, 0.313 µg/mL (≈ 1.08 µM); in the experiment with Phialophora mutabilis, 1.45 µg/mL (≈ 5.01 µM); with Trametes Versicolor, 0.118 µg/mL (≈ 0.409 µM); in the experiment on Cladisporium resinae it was 1.7 µg/mL (≈ 5.89 µM); with Aureobasidum pullulans it was 0.5 µg/mL (≈ 1.73 µM). Further, the EC50 in the experiment on Aspergillus flavus is 1.2 µg/mL (≈ 4.16 µM).
